Earlier results on one molecule are cited in US20070178049A1, “Systems and methods for the delivery of corticosteroids having an enhanced pharmacokinetic profile” (Verus Pharmaceuticals, Inc., priority 2005, published 2007).

On to `CCCC1O[C@@H]2C[C@H]3[C@@H]4CCC5=CC(=O)C=C[C@]5(C)[C@H]4[C@@H](O)C[C@]3(C)[C@]2(C(=O)CO)O1` (stereo partly drawn) [budesonide, (R, S)-11β,16α,17,21-tetrahydroxypregna-1,4-diene-3,20-dione cyclic 16,17-acetal with butyraldehyde], for which the solubility in alcohols entry (alcohols) was “readily soluble”. For the same molecule, under “water”, the solubility in water result is on record as “virtually insoluble”.
